For the assay, the system named is BDF1 mice, P388 leukemia ip, median survival T/C. In words: NCI In Vivo Anticancer Drug Screen. Data for tumor model P388 Leukemia (intraperitoneal) in B6D2F1 (BDF1) mice. The following applies: endpoint: median survival time, higher = longer survival. In short, it runs like this:
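Survival ratio, drug arm over vehicle arm, in mice with a transplanted tumour.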

Where [1] appears, read: dose: 50.0 mg/kg/injection, schedule: Q01DX009 (ip), vehicle: Klucel (hydroxypropylcellulose) (HPC).
The mark [2] stands for this setting: dose: 100.0 mg/kg/injection, schedule: Q01DX009 (ip), vehicle: Klucel (hydroxypropylcellulose) (HPC).
The mark [3] stands for this setting: dose: 100.0 mg/kg/injection, schedule: Q04DX003 (ip), vehicle: Klucel (hydroxypropylcellulose) (HPC).
Where [4] appears, read: dose: 200.0 mg/kg/injection, schedule: Q04DX003 (ip), vehicle: Klucel (hydroxypropylcellulose) (HPC).
Where [5] appears, read: dose: 100.0 mg/kg/injection, schedule: Q04DX003 (ip), vehicle: saline sonified.
Where [6] appears, read: dose: 100.0 mg/kg/injection, schedule: Q04DX003 (ip), vehicle: saline with Tween-80.
[7] abbreviates: dose: 200.0 mg/kg/injection, schedule: Q04DX003 (ip), vehicle: saline with Tween-80.
[8] abbreviates: dose: 400.0 mg/kg/injection, schedule: Q04DX003 (ip), vehicle: saline with Tween-80.
Setting [9] is: dose: 200.0 mg/kg/injection, schedule: Q01DX009 (ip), vehicle: saline.
Setting [10] is: dose: 25.0 mg/kg/injection, schedule: Q01DX009 (ip), vehicle: Klucel (hydroxypropylcellulose) (HPC).
Setting [11] is: dose: 100.0 mg/kg/injection, schedule: Q01DX001 (ip), vehicle: Klucel (hydroxypropylcellulose) (HPC).
The mark [12] stands for this setting: dose: 200.0 mg/kg/injection, schedule: Q01DX001 (ip), vehicle: Klucel (hydroxypropylcellulose) (HPC).
The mark [13] stands for this setting: dose: 400.0 mg/kg/injection, schedule: Q01DX001 (ip), vehicle: Klucel (hydroxypropylcellulose) (HPC).

We go through 17 compounds from PubChem BioAssay AID328 (DTP/NCI, 2004).

Several values for one entry are separate records, joined by “and”; a condition that tells them apart may be missing. Identical values can stand only once. Inconclusive results and toxic doses are left out.

For `Cn1c(=O)c2[nH]cnc2n(C)c1=O`, the T/C was 95 % of control (dose: 25.0 mg/kg/injection, schedule: Q01DX010 (ip), vehicle: saline); 104 % of control (dose: 50.0 mg/kg/injection, schedule: Q01DX010 (ip), vehicle: saline); 100 % of control (dose: 100.0 mg/kg/injection, schedule: Q01DX010 (ip), vehicle: saline); 104 % of control (dose: 200.0 mg/kg/injection, schedule: Q01DX010 (ip), vehicle: saline).

Turning to `COC1(c2ccccc2)CN(Cc2ccccc2)CCO1` (stereo unspecified), the T/C under setting [1] was 113 % of control; the T/C under setting [2] was 118 % of control; the T/C under setting [3] was 113 % of control; the T/C (dose: 200.0 mg/kg/injection, schedule: Q01DX009 (ip), vehicle: Klucel (hydroxypropylcellulose) (HPC)) is 95 % of control; the T/C under setting [4] was 113 % of control.

On to `CCOC(=O)Nc1cc2c(c(N)n1)N=C(CN(C)c1ccc(OC)cc1)CN2`, for which the T/C (dose: 12.5 mg/kg/injection, schedule: Q01DX001 (ip), vehicle: Klucel (hydroxypropylcellulose) (HPC)) is 175 % of control; the T/C (dose: 25.0 mg/kg/injection, schedule: Q01DX001 (ip), vehicle: Klucel (hydroxypropylcellulose) (HPC)) was 240 % of control; the T/C (dose: 50.0 mg/kg/injection, schedule: Q01DX001 (ip), vehicle: Klucel (hydroxypropylcellulose) (HPC)) was 277 % of control.

Take `CCCC(Sc1nc(N)nc2nc[nH]c12)C(=O)O` (stereo unspecified): the T/C runs as follows: (dose: 100.0 mg/kg/injection, schedule: Q01DX009 (ip), vehicle: saline sonified) 115 % of control; under setting [5], 109 % of control; (dose: 200.0 mg/kg/injection, schedule: Q04DX003 (ip), vehicle: saline sonified) 118 % of control; (dose: 400.0 mg/kg/injection, schedule: Q01DX009 (ip), vehicle: saline sonified) 100 % of control; (dose: 400.0 mg/kg/injection, schedule: Q04DX003 (ip), vehicle: saline sonified) 109 % of control.

As for `Cc1ccc(S(=O)(=O)OCCN(CCOS(=O)(=O)c2ccc(C)cc2)c2ccc(F)cc2)cc1`, the T/C runs as follows: (dose: 29.3 mg/kg/injection, schedule: Q01DX009 (ip), vehicle: other) 190 % of control; (dose: 44.0 mg/kg/injection, schedule: Q01DX009 (ip), vehicle: other) 213 % of control; (dose: 66.0 mg/kg/injection, schedule: Q01DX009 (ip), vehicle: other) 245 % of control and 272 % of control; (dose: 66.0 mg/kg/injection, schedule: Q04DX003 (ip), vehicle: saline sonified) 105 % of control; under setting [5], 100 % of control; (dose: 150.0 mg/kg/injection, schedule: Q04DX003 (ip), vehicle: saline sonified) 105 % of control. In addition, the T/C is 113 % of control (dose: 200.0 mg/kg/injection, schedule: Q01DX009 (ip), vehicle: other); 154 % of control (dose: 200.0 mg/kg/injection, schedule: Q04DX003 (ip), vehicle: other); 150 % of control (dose: 400.0 mg/kg/injection, schedule: Q04DX003 (ip), vehicle: other).

In the case of `CCCNC(=O)Oc1ccc(C(=O)OCC)cc1`, the T/C was 100 % of control under setting [6], 109 % of control under setting [7] and 113 % of control under setting [8].

`C=CC(CO)N1CC1` (stereo unspecified): the T/C was 100 % of control (dose: 6.25 mg/kg/injection, schedule: Q04DX003 (ip), vehicle: saline with Tween-80); 112 % of control (dose: 12.5 mg/kg/injection, schedule: Q04DX003 (ip), vehicle: saline with Tween-80); 104 % of control (dose: 25.0 mg/kg/injection, schedule: Q04DX003 (ip), vehicle: saline with Tween-80).

As for `CCCCCCCNC(=O)Nc1cc([N+](=O)[O-])ccc1C`, the T/C reads like this: under setting [6], 100 % of control; under setting [7], 100 % of control; under setting [8], 104 % of control.

Turning to `O=c1[nH]cc[nH]1`, the T/C is, setting by setting: (dose: 100.0 mg/kg/injection, schedule: Q01DX009 (ip), vehicle: saline) 95 % of control; (dose: 100.0 mg/kg/injection, schedule: Q04DX003 (ip), vehicle: saline) 100 % of control; under setting [9], 114 % of control; (dose: 200.0 mg/kg/injection, schedule: Q04DX003 (ip), vehicle: saline) 108 % of control; (dose: 264.0 mg/kg/injection, schedule: Q01DX009 (ip), vehicle: saline) 122 % of control; (dose: 400.0 mg/kg/injection, schedule: Q01DX009 (ip), vehicle: saline) 122 % of control. For the same compound, the T/C (dose: 400.0 mg/kg/injection, schedule: Q04DX003 (ip), vehicle: saline) is 104 % of control.

With `O=C(O)c1c(-c2ccccc2)[nH]c2cc(Cl)ccc2c1=O`, the T/C was 95 % of control (dose: 6.25 mg/kg/injection, schedule: Q01DX009 (ip), vehicle: Klucel (hydroxypropylcellulose) (HPC)); 90 % of control and 109 % of control (dose: 12.5 mg/kg/injection, schedule: Q01DX009 (ip), vehicle: Klucel (hydroxypropylcellulose) (HPC)); 100 % of control under setting [10]; 95 % of control under setting [1]; 114 % of control (dose: 50.0 mg/kg/injection, schedule: Q01DX009 (ip), vehicle: saline with Tween-80); 122 % of control (dose: 50.0 mg/kg/injection, schedule: Q04DX003 (ip), vehicle: saline with Tween-80). The T/C is 109 % of control (dose: 90.0 mg/kg/injection, schedule: Q04DX003 (ip), vehicle: saline with Tween-80); 118 % of control (dose: 100.0 mg/kg/injection, schedule: Q01DX009 (ip), vehicle: saline with Tween-80); 113 % of control under setting [6]; 112 % of control and 113 % of control (dose: 133.0 mg/kg/injection, schedule: Q04DX003 (ip), vehicle: saline with Tween-80); 100 % of control (dose: 200.0 mg/kg/injection, schedule: Q01DX009 (ip), vehicle: saline with Tween-80); 108 % of control and 109 % of control under setting [7]. Moreover, the T/C (dose: 300.0 mg/kg/injection, schedule: Q04DX003 (ip), vehicle: saline with Tween-80) was 104 % of control.

As for `O=C1c2ccccc2CCC12OC2c1ccc(Cl)cc1` (stereo unspecified), the T/C under setting [11] is 95 % of control; the T/C under setting [3] was 100 % of control; the T/C under setting [6] is 91 % of control; the T/C under setting [12] was 100 % of control; the T/C under setting [4] was 104 % of control; the T/C under setting [7] was 104 % of control. Also, the T/C is, setting by setting: under setting [13], 90 % of control; (dose: 400.0 mg/kg/injection, schedule: Q04DX003 (ip), vehicle: Klucel (hydroxypropylcellulose) (HPC)) 104 % of control; under setting [8], 95 % of control.

Turning to `O=C1CSc2cc[nH]c21`, the T/C (dose: 50.0 mg/kg/injection, schedule: Q04DX003 (ip), vehicle: Klucel (hydroxypropylcellulose) (HPC)) is 90 % of control; the T/C under setting [3] was 90 % of control; the T/C under setting [4] is 104 % of control.

Take `CCOC(O)C(Cl)(Cl)Cl` (stereo unspecified): the T/C runs as follows: (dose: 100.0 mg/kg/injection, schedule: Q01DX001 (ip), vehicle: saline with Tween-80) 100 % of control; (dose: 200.0 mg/kg/injection, schedule: Q01DX001 (ip), vehicle: saline with Tween-80) 100 % of control; (dose: 400.0 mg/kg/injection, schedule: Q01DX001 (ip), vehicle: saline with Tween-80) 100 % of control.

Take `O=C1NC(=O)C(c2ccccc2Cl)N1` (stereo unspecified): the T/C reads like this: under setting [11], 104 % of control; under setting [12], 112 % of control; under setting [13], 112 % of control.

As to `CCNC(=O)c1cc2cccc(OC)c2oc1=N`, the T/C under setting [9] is 86 % of control.

For the compound `O/N=C\c1ccccc1`, the T/C is 108 % of control under setting [10]; 95 % of control under setting [1]; 110 % of control (dose: 75.0 mg/kg/injection, schedule: Q04DX003 (ip), vehicle: saline with Tween-80); 91 % of control under setting [2]; 105 % of control (dose: 150.0 mg/kg/injection, schedule: Q04DX003 (ip), vehicle: saline with Tween-80).

Take `C[C@@H]1C[C@@]2(O[C@@H]2C)C(=O)O[C@@H]2CCN3CC=C(COC(=O)[C@]1(C)O)[C@H]23`: the T/C runs as follows: (dose: 20.0 mg/kg/injection, schedule: Q01DX010 (ip), vehicle: carboxymethylcellulose (CMC)) 110 % of control; (dose: 40.0 mg/kg/injection, schedule: Q01DX010 (ip), vehicle: carboxymethylcellulose (CMC)) 100 % of control.
